Experimental data: ChEMBL document CHEMBL1201862, “PubChem BioAssay data set” (2004)
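48-hour exposure; five concentrations; linearly interpolated endpoints. GI50 = concentration required for 50% inhibition of growth.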 The source made the active and inactive calls. No stated cut-off is given here; in the data, active = GI50 up to about 1.1 µM and inactive = higher.

Key:
Test in all cases: NCI-60 cell line screen, 48 h
[1] = tested on: 786-0
[2] = tested on: A498
[3] = tested on: A549
[4] = tested on: ACHN
[5] = tested on: CAKI-1
[6] = tested on: CCRF-CEM
[7] = tested on: COLO 205
[8] = tested on: DLD-1
[9] = tested on: DMS-114
[10] = tested on: DMS-273
[11] = tested on: EKVX
[12] = tested on: HCC 2998
[13] = tested on: HCT-116
[14] = tested on: HCT-15
[15] = tested on: HL-60
[16] = tested on: HOP-18
[17] = tested on: HOP-62
[18] = tested on: HOP-92
[19] = tested on: HT-29
[20] = tested on: IGROV-1
[21] = tested on: K562
[22] = tested on: KM-20L2
[23] = tested on: KM12
[24] = tested on: LOX IMVI
[25] = tested on: LXFL 529
[26] = tested on: M14
[27] = tested on: M19-MEL
[28] = tested on: MOLT-4
[29] = tested on: Malme-3M
[30] = tested on: NCI-H226
[31] = tested on: NCI-H23
[32] = tested on: NCI-H460
[33] = tested on: OVCAR-3
[34] = tested on: OVCAR-4
[35] = tested on: OVCAR-5
[36] = tested on: OVCAR-8
[37] = tested on: RPMI-8226
[38] = tested on: RXF 393
[39] = tested on: RXF 631
[40] = tested on: SF-268
[41] = tested on: SF-295
[42] = tested on: SF-539
[43] = tested on: SK-MEL-28
[44] = tested on: SK-MEL-2
[45] = tested on: SK-MEL-5
[46] = tested on: SK-OV-3
[47] = tested on: SN12C
[48] = tested on: SNB-19
[49] = tested on: SNB-75
[50] = tested on: SNB-78
[51] = tested on: SR
[52] = tested on: SW-620
[53] = tested on: TK-10
[54] = tested on: U-251
[55] = tested on: UACC-257
[56] = tested on: UACC-62
[57] = tested on: UO-31
[58] = tested on: XF498

Structure (SMILES): CC(=O)OC1C/C(C)=C/[C@H](O)CC(C)/C=C/[C@@]2(C)CCC(C(C)(C)O)C12 (stereo partly drawn)
- GI50 [1]: > 100 µM (inactive)
- GI50 [2]: > 100 µM (inactive)
- GI50 [3]: > 100 µM (inactive)
- GI50 [4]: > 100 µM (inactive)
- GI50 [5]: > 100 µM (inactive)
- GI50 [6]: > 100 µM (inactive)
- GI50 [7]: > 100 µM (inactive)
- GI50 [8]: > 100 µM (inactive)
- GI50 [9]: > 100 µM (inactive)
- GI50 [10]: > 100 µM (inactive)
- GI50 [11]: > 100 µM (inactive)
- GI50 [12]: > 100 µM (inactive)
- GI50 [13]: > 100 µM (inactive)
- GI50 [14]: > 100 µM
- GI50 [15]: > 100 µM (inactive)
- GI50 [16]: > 100 µM (inactive)
- GI50 [17]: > 100 µM (inactive)
- GI50 [18]: > 100 µM (inactive)
- GI50 [19]: > 100 µM (inactive)
- GI50 [20]: > 100 µM (inactive)
- GI50 [21]: > 100 µM (inactive)
- GI50 [22]: > 100 µM (inactive)
- GI50 [23]: > 100 µM (inactive)
- GI50 [24]: > 100 µM (inactive)
- GI50 [25]: > 100 µM (inactive)
- GI50 [26]: > 100 µM (inactive)
- GI50 [27]: > 100 µM (inactive)
- GI50 [28]: > 100 µM (inactive)
- GI50 [29]: > 100 µM (inactive)
- GI50 [30]: > 100 µM (inactive)
- GI50 [31]: > 100 µM (inactive)
- GI50 [32]: > 100 µM (inactive)
- GI50 [33]: > 100 µM (inactive)
- GI50 [34]: > 100 µM (inactive)
- GI50 [35]: > 100 µM (inactive)
- GI50 [36]: > 100 µM (inactive)
- GI50 [37]: > 100 µM (inactive)
- GI50 [38]: > 100 µM (inactive)
- GI50 [39]: > 100 µM (inactive)
- GI50 [40]: > 100 µM (inactive)
- GI50 [41]: > 100 µM (inactive)
- GI50 [42]: > 100 µM (inactive)
- GI50 [43]: > 100 µM (inactive)
- GI50 [44]: > 100 µM (inactive)
- GI50 [45]: > 100 µM (inactive)
- GI50 [46]: > 100 µM (inactive)
- GI50 [47]: > 100 µM (inactive)
- GI50 [48]: > 100 µM (inactive)
- GI50 [49]: > 100 µM (inactive)
- GI50 [50]: > 100 µM (inactive)
- GI50 [51]: > 100 µM (inactive)
- GI50 [52]: > 100 µM (inactive)
- GI50 [53]: > 100 µM (inactive)
- GI50 [54]: > 100 µM (inactive)
- GI50 [55]: > 100 µM (inactive)
- GI50 [56]: > 100 µM (inactive)
- GI50 [57]: > 100 µM (inactive)
- GI50 [58]: > 100 µM (inactive)
